# Data published in patent US7544676B2, “Sulfamoyl benzamides and methods of their use” (Adolor Corporation, priority 2005, dated 2009).
# Experiments:
# CB2 receptor [1] = molecular target: T1, CB2 receptor (Homo sapiens, UniProt P34972); experiment: hCB2-mediated [35S]GTPγS binding; assay type: biochemical
# T1 construct: expressed in transfected cells; host or cells: CHO-K1
# Protocol: (§1) EC50 values in functional assays were also derived from automated nonlinear regression analysis of sigmoidal titration curves using the three-parameter modification of the four-parameter equation.
# (§2) Chinese hamster ovary cells (CHO-K1), stably transfected with either hCB1 or hCB2, were washed two times with cold PBS, scraped from 500 cm^2 tissue culture plates, and pelleted by centrifugation at 1000×g for 10 min. […]
# (§3) hCB1-Mediated stimulation of [^35S]GTPγS binding was measured in a mixture containing 100-150 pM [^35S]GTPγS, 150 mM NaCl, 45 mM MgCl2, […], 0.4 mM DTT, 1 mM EGTA, 1 mg/mL fatty acid free BSA, 25 μg of membrane protein and agonist in a total volume of 250 μL of buffer A in 96 well Basic Flashplates (Perkin Elmer). After incubation at room temperature for 2 hours the plates were centrifuged at 800×g at 4° C. for 5 min and the radioactivity bound to the membranes was determined by scintillation spectrometry using the Topcount (Perkin Elmer).
# hCB2-Mediated [35 S]GTPγS binding was measured in the same way except the assay mixture contained […] and the incubation time was 6 hours. […] After incubation at 30° C. for 2 hours, the plates were centrifuged at 800×g at 4° C. for 5 min and the radioactivity bound to the membrane was determined by scintillation spectrometry using the Topcount (Perkin Elmer).
# CB2 receptor [2] = molecular target: T1, CB2 receptor; experiment: Inhibition of [3H]CP55940 binding to cloned human CB2 receptor membranes
# Protocol: (§4) Ki values in receptor binding experiments were determined by Cheng-Prusoff correction of IC50 values derived from automated nonlinear regression analysis of sigmoidal titration curves using a three-parameter modification (slope set to 1.0) of the four-parameter equation described in Cheng, Y.-C. and W. H. Prusoff, Biochem. Pharmacol. 22:3099-3108 (1973) and DeLean et al., Am. J. Physiol. 235:E97-E102 (1978).
# as §2
# (§5) Binding assays were performed by incubating 0.2-0.6 nM (34,000-100,000 dpm) [^3H]CP55940 with membranes prepared from cells expressing cloned human CB1 or CB2 receptors in buffer A (50 mM Tris HCl, pH 7.0, 5.0 mM MgCl2, 1.0 mM EGTA and 1.0 mg/mL fatty acid free bovine serum albumin). […] The filters were rinsed 6 times with one mL of cold wash buffer (50 mM Tris HCl, pH 7.0, 5.0 mM MgCl2, 1.0 mM EGTA and 0.75 mg/mL fatty acid free bovine serum albumin), 30 μL of MicroScint 20 was added to each filter and the radioactivity on the filters determined by scintillation spectroscopy. Nonspecific binding was determined in the presence of 10 μM WIN55212-2.
# CB1 receptor [3] = molecular target: T2, CB1 receptor (Homo sapiens, UniProt P21554); experiment: hCB1-mediated stimulation of [35S]GTPγS binding; assay type: biochemical; conditions: in vitro functional assay
# T2 construct: expressed in transfected cells; host or cells: CHO-K1
# Protocol: as §1
# Chinese hamster ovary cells (CHO-K1), stably transfected with either hCB1 or hCB2, were washed two times with cold PBS, scraped from 500 cm^2 tissue culture plates, and pelleted by centrifugation at 1000×g for 10 min. The supernatant was discarded and the pellet was resuspended in Tris assay buffer (50 mM Tris HCl, pH 7.8, containing 1.0 mM EGTA, 5.0 mM MgCl2, […], and […] aprotinin), homogenized with a Polytron homogenizer (Brinkmann) at a setting of 1 for 20 sec and centrifuged at 38,000×g for 20 min at 4° C. […]
# as §3
# CB1 receptor [4] = molecular target: T2, CB1 receptor; experiment: Inhibition of [3H]CP55940 binding to cloned human CB1 receptor membranes
# Protocol: as §4, §2, §5
# T2 sequence (P21554 whole entry): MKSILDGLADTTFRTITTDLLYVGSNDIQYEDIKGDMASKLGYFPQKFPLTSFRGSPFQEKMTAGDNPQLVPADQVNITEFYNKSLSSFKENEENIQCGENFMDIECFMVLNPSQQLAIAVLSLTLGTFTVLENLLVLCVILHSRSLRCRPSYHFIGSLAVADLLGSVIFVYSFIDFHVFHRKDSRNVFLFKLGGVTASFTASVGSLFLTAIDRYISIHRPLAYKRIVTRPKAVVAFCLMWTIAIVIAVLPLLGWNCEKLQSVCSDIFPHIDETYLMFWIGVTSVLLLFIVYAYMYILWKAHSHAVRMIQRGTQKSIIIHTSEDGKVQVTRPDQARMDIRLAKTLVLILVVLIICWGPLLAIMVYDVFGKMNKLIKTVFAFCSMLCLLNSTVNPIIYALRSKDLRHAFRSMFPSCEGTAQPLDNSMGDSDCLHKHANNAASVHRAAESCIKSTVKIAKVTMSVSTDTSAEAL
# T1 sequence (P34972 whole entry): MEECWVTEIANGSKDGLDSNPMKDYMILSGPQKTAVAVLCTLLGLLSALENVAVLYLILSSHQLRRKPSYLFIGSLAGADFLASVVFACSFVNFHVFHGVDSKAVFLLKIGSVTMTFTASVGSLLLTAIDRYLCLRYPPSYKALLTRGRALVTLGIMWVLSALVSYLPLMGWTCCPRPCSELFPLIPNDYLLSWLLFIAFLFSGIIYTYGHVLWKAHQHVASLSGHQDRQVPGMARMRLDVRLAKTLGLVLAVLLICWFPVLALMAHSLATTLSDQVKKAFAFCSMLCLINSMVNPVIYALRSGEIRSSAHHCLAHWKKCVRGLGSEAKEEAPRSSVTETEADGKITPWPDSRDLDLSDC
SMILES,"EC50 (CB2 receptor [1]; agonist mode, read-out: in vitro CB2 receptor agonist potency (EC50)) [nM]",Ki (CB2 receptor [2]) [nM],in vitro CB1 receptor agonist activity (CB1 receptor [3]),Ki (CB1 receptor [4]) [nM],"IC50 (CB2 receptor [1]; antagonist mode, read-out: in vitro CB2 receptor antagonist potency (IC50)) [nM]"
"CNc1ccc(C(=O)N[C@@H]2C(C)(C)[C@@H]3CC[C@@]2(C)C3)cc1S(=O)(=O)N(C)C [Compound 1X, 3-(N,N-dimethylsulfamoyl)-4-(methylamino)-N-((1S,2S,4R)-1,3,3-trimethylbicyclo[2.2.1]heptan-2-yl)benzamide]",18.6,8.9,no in vitro CB1 receptor agonist activity,1930,
"COCCNc1ccc(C(=O)NC2C(C)(C)[C@@H]3CC[C@@]2(C)C3)cc1S(=O)(=O)N1CCOCC1 (stereo partly drawn) [Compound 2D, 4-(2-methoxyethylamino)-3-(morpholinosulfonyl)-N-((1S,4R)-1,3,3-trimethylbicyclo[2.2.1]heptan-2-yl)benzamide]",,1.6,,1310,8.5
